# Assays:
# Assay in all cases: relative viability (nuclei count vs DMSO), 5 days (fraction); higher = more cells survive
# EPLC-272H = system: EPLC-272H
# In short: (§1)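 Medians of duplicate plates are given as relative viability. That measure is the nuclei count in treated wells divided by the count in vehicle wells. Counts were taken on 4× images of lung cancer cell lines in 1536-well plates, 5 days after pin-tool dosing the day after seeding with one drug alone or a fixed anchor-drug dose plus five library-drug doses (not always all listed) in √10 steps.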
# HARA = system: HARA
# In short: as §1
# COR-L 105 = system: COR-L 105
# In short: as §1
# ChaGo-K-1 = system: ChaGo-K-1
# In short: as §1
# NCI-H1792 = system: NCI-H1792
# In short: as §1
# NCI-H1734 = system: NCI-H1734
# In short: as §1
# EKVX = system: EKVX
# In short: as §1
# NCI-H647 = system: NCI-H647
# In short: as §1
# NCI-H2405 = system: NCI-H2405
# In short: as §1
# RERF-LC-KJ = system: RERF-LC-KJ
# In short: as §1
# NCI-H1993 = system: NCI-H1993
# In short: as §1
# SW 900 = system: SW 900
# In short: as §1
# NCI-H596 = system: NCI-H596
# In short: as §1
# A-427 = system: A-427
# In short: as §1
# NCI-H522 = system: NCI-H522
# In short: as §1
# NCI-H460 = system: NCI-H460
# In short: as §1
# NCI-H1650 = system: NCI-H1650
# In short: as §1
# LU99A = system: LU99A
# In short: as §1
# LK-2 = system: LK-2
# In short: as §1
# NCI-H358 = system: NCI-H358
# In short: as §1
# NCI-H1755 = system: NCI-H1755
# In short: as §1
# EMC-BAC-2 = system: EMC-BAC-2
# In short: as §1
structure (smiles),measurement,setting,value
CN1CCN(CCOc2cc(OC3CCOCC3)c3c(Nc4c(Cl)ccc5c4OCO5)ncnc3c2)CC1 [Saracatinib] + Cc1nc(Nc2ncc(C(=O)Nc3c(C)cccc3Cl)s2)cc(N2CCN(CCO)CC2)n1 [Dasatinib] (partner 0.075 µM),relative viability,EPLC-272H; first compound 0.02 µM,0.382
same,relative viability,EPLC-272H; first compound 0.2 µM,0.401
same,relative viability,EPLC-272H; first compound 0.6325 µM,0.375
same,relative viability,EPLC-272H; first compound 2 µM,0.307
same,relative viability,HARA; first compound 0.02 µM,0.225
same,relative viability,HARA; first compound 0.2 µM,0.224
same,relative viability,HARA; first compound 0.6325 µM,0.272
same,relative viability,HARA; first compound 2 µM,0.23
same,relative viability,COR-L 105; first compound 0.02 µM,0.448
same,relative viability,COR-L 105; first compound 0.2 µM,0.457
same,relative viability,COR-L 105; first compound 0.6325 µM,0.376
same,relative viability,COR-L 105; first compound 2 µM,0.242
same,relative viability,ChaGo-K-1; first compound 0.02 µM,0.732
same,relative viability,ChaGo-K-1; first compound 0.2 µM,0.431
same,relative viability,ChaGo-K-1; first compound 0.6325 µM,0.657
same,relative viability,ChaGo-K-1; first compound 2 µM,0.459
same,relative viability,NCI-H1792; first compound 0.02 µM,0.824
same,relative viability,NCI-H1792; first compound 0.2 µM,0.566
same,relative viability,NCI-H1792; first compound 0.6325 µM,0.894
same,relative viability,NCI-H1792; first compound 2 µM,0.711
same,relative viability,NCI-H1734; first compound 0.02 µM,0.455
same,relative viability,NCI-H1734; first compound 0.6325 µM,0.49
same,relative viability,NCI-H1734; first compound 2 µM,0.469
same,relative viability,EKVX; first compound 0.02 µM,0.5
same,relative viability,EKVX; first compound 0.2 µM,0.363
same,relative viability,EKVX; first compound 0.6325 µM,0.622
same,relative viability,EKVX; first compound 2 µM,0.364
same,relative viability,NCI-H647; first compound 0.02 µM,0.246
same,relative viability,NCI-H647; first compound 0.2 µM,0.242
same,relative viability,NCI-H647; first compound 0.6325 µM,0.214
same,relative viability,NCI-H647; first compound 2 µM,0.246
same,relative viability,NCI-H2405; first compound 0.02 µM,0.22
same,relative viability,NCI-H2405; first compound 0.2 µM,0.223
same,relative viability,NCI-H2405; first compound 0.6325 µM,0.228
same,relative viability,NCI-H2405; first compound 2 µM,0.169
same,relative viability,RERF-LC-KJ; first compound 0.02 µM,0.883
same,relative viability,RERF-LC-KJ; first compound 0.2 µM,0.797
same,relative viability,RERF-LC-KJ; first compound 0.6325 µM,0.695
same,relative viability,RERF-LC-KJ; first compound 2 µM,0.676
same,relative viability,NCI-H1993; first compound 0.02 µM,0.589
same,relative viability,NCI-H1993; first compound 0.2 µM,0.528
same,relative viability,NCI-H1993; first compound 0.6325 µM,0.527
same,relative viability,NCI-H1993; first compound 2 µM,0.501
same,relative viability,SW 900; first compound 0.02 µM,0.559
same,relative viability,SW 900; first compound 0.2 µM,0.549
same,relative viability,SW 900; first compound 0.6325 µM,0.548
same,relative viability,SW 900; first compound 2 µM,0.549
same,relative viability,NCI-H596; first compound 0.02 µM,0.558
same,relative viability,NCI-H596; first compound 0.2 µM,0.659
same,relative viability,NCI-H596; first compound 0.6325 µM,0.607
same,relative viability,NCI-H596; first compound 2 µM,0.57
same,relative viability,A-427; first compound 0.02 µM,0.658
same,relative viability,A-427; first compound 0.2 µM,0.652
same,relative viability,A-427; first compound 0.6325 µM,0.691
same,relative viability,A-427; first compound 2 µM,0.777
same,relative viability,NCI-H522; first compound 0.02 µM,0.88
same,relative viability,NCI-H522; first compound 0.6325 µM,0.864
same,relative viability,NCI-H522; first compound 2 µM,0.8
same,relative viability,NCI-H460; first compound 0.02 µM,0.587
same,relative viability,NCI-H460; first compound 0.2 µM,0.418
same,relative viability,NCI-H460; first compound 0.6325 µM,0.603
same,relative viability,NCI-H460; first compound 2 µM,0.46
same,relative viability,NCI-H1650; first compound 0.02 µM,0.378
same,relative viability,NCI-H1650; first compound 0.2 µM,0.299
same,relative viability,NCI-H1650; first compound 0.6325 µM,0.359
same,relative viability,NCI-H1650; first compound 2 µM,0.371
same,relative viability,LU99A; first compound 0.02 µM,0.567
same,relative viability,LU99A; first compound 0.2 µM,0.578
same,relative viability,LU99A; first compound 0.6325 µM,0.652
same,relative viability,LU99A; first compound 2 µM,0.558
same,relative viability,LK-2; first compound 0.02 µM,0.275
same,relative viability,LK-2; first compound 0.2 µM,0.288
same,relative viability,LK-2; first compound 0.6325 µM,0.345
same,relative viability,LK-2; first compound 2 µM,0.376
same,relative viability,NCI-H358; first compound 0.02 µM,0.168
same,relative viability,NCI-H358; first compound 0.2 µM,0.16
same,relative viability,NCI-H358; first compound 0.6325 µM,0.18
same,relative viability,NCI-H358; first compound 2 µM,0.103
same,relative viability,NCI-H1755; first compound 0.02 µM,0.422
same,relative viability,NCI-H1755; first compound 0.2 µM,0.318
same,relative viability,NCI-H1755; first compound 0.6325 µM,0.439
same,relative viability,NCI-H1755; first compound 2 µM,0.404
same,relative viability,EMC-BAC-2; first compound 0.02 µM,0.321
same,relative viability,EMC-BAC-2; first compound 0.2 µM,0.286
same,relative viability,EMC-BAC-2; first compound 0.6325 µM,0.324
same,relative viability,EMC-BAC-2; first compound 2 µM,0.294

# Reference: the supplement of paper PMC10307832
